Laboratory results reported in patent publication US9540392B2, “Thienopyrimidines” (BAYER PHARMA AKTIENGESELLSCHAFT, priority 2012, dated 2017).

Target: T1, human full-length MKNK1 (Homo sapiens, UniProt Q9BUB5, T385D)
T1 construct: GST (N); purchased Carna Biosciences 02-145; host or cells: insect cells (baculovirus expression system)
Assay: MKNK1 kinase high ATP assay (TR-FRET)
Format: biochemical
Conditions: 2 mM ATP, after preincubation with MKNK1; read-out: MKNK1 IC50 (MKNK1 high ATP)
In short: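 Compound was preincubated 15 min at 22° C. with MKNK1 in 50 mM HEPES pH 7.5, 5 mM MgCl2, 1.0 mM DTT, then the reaction ran 30 min at 22° C. with 2 mM ATP and 0.06 μM biotinylated peptide (final).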

T1 sequence (Q9BUB5 1-424 isoform Q9BUB5-2 T344D): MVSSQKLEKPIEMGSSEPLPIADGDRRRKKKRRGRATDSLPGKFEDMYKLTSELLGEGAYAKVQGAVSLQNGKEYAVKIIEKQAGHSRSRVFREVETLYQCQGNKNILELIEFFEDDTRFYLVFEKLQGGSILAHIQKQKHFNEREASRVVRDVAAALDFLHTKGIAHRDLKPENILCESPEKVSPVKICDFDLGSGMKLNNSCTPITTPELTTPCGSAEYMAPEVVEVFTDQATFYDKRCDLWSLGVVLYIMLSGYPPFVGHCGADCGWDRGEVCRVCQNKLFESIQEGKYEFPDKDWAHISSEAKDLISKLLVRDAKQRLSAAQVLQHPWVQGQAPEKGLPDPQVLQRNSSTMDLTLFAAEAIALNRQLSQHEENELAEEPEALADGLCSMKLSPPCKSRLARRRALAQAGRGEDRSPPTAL

SMILES	IC50
O=C(C1CCc2c(sc3ncnc(Nc4ccc5[nH]ncc5c4)c23)C1)N1CCN(c2ccncc2)CC1 (racemic) [Example 112, (RS)-[4-(1H-indazol-5-ylamino)-5,6,7,8-tetrahydro[1]benzothieno[2,3-d]pyrimidin-7-yl][4-(pyridin-4-yl)piperazin-1-yl]methanone]	9.4 nM
Cn1nccc1CNC(=O)C1CCc2c(sc3ncnc(Nc4ccc5[nH]ncc5c4)c23)C1 (racemic) [Example 136, (RS)-4-(1H-indazol-5-ylamino)-N-[(1-methyl-1H-pyrazol-5-yl)methyl]-5,6,7,8-tetrahydro[1]benzothieno[2,3-d]pyrimidine-7-carboxamide]	7.6 nM
COc1ccc(CNC(=O)C2CCc3c(sc4ncnc(Nc5ccc6[nH]ncc6c5)c34)C2)cc1 (stereo not drawn) [Example 30, 4-(1H-Indazol-5-ylamino)-N-(4-methoxybenzyl)-5,6,7,8-tetrahydro[1] benzothieno [2,3-d]pyrimidine-7-carboxamide]	4 nM
CN(C)C(=O)N1CCN(C(=O)C2CCc3c(sc4ncnc(Nc5ccc6[nH]ncc6c5)c34)C2)CC1 (racemic) [Example 126, (RS)-4-{[4-(1H-indazol-5-ylamino)-5,6,7,8-tetrahydro[1]benzothieno[2,3-d]pyrimidin-7-yl]carbonyl}-N,N-dimethylpiperazine-1-carboxamide]	14.8 nM
CCOc1cc2[nH]ncc2cc1Nc1ncnc2sc3c(c12)CCC(C(=O)N(C)CC)C3 (racemic) [Example 229, (RS)-4-[(6-Ethoxy-1H-indazol-5-yl)amino]-N-ethyl-N-methyl-5,6,7,8-tetrahydro[1]benzothieno[2,3-d]pyrimidine-7-carboxamide]	0.7 nM
CCN(C)C(=O)C1CCc2c(sc3ncnc(Nc4cc5cn[nH]c5cc4OC)c23)C1 (racemic) [Example 179, (RS)—N-Ethyl-4-[(6-methoxy-1H-indazol-5-yl)amino]-N-methyl-5,6,7,8-tetrahydro[1]benzothieno[2,3-d]pyrimidine-7-carboxamide]	0.7 nM
CC(C)Oc1cc2[nH]ncc2cc1Nc1ncnc2sc3c(c12)CCC(C(=O)N1CC2(COC2)C1)C3 (racemic) [Example 206, (RS)-2-Oxa-6-azaspiro[3.3]hept-6-yl(4-{[6-(propan-2-yloxy)-1H-indazol-5-yl]amino}-5,6,7,8-tetrahydro[1]benzothieno[2,3-d]pyrimidin-7-yl)methanone]	1 nM
CCN1CCN(C(=O)C2CCc3c(sc4ncnc(Nc5ccc6[nH]ncc6c5)c34)C2)CC1 (racemic) [Example 119, (RS)-(4-ethylpiperazin-1-yl)[4-(1H-indazol-5-ylamino)-5,6,7,8-tetrahydro[1]benzothieno[2,3-d]pyrimidin-7-yl]methanone]	15.9 nM
O=C(NCc1ccsc1)C1CCc2c(sc3ncnc(Nc4ccc5[nH]ncc5c4)c23)C1 (racemic) [Example 151, (RS)-4-(1H-indazol-5-ylamino)-N-(thiophen-3-ylmethyl)-5,6,7,8-tetrahydro[1]benzothieno[2,3-d]pyrimidine-7-carboxamide]	3.2 nM
CN(Cc1cccn1C)C(=O)C1CCc2c(sc3ncnc(Nc4ccc5[nH]ncc5c4)c23)C1 (racemic) [Example 163, (RS)-4-(1H-indazol-5-ylamino)-N-methyl-N-[(1-methyl-1H-pyrrol-2-yl)methyl]-5,6,7,8-tetrahydro[1]benzothieno[2,3-d]pyrimidine-7-carboxamide]	12.4 nM
O=C(Nc1cncnc1)C1CCc2c(sc3ncnc(Nc4ccc5[nH]ncc5c4)c23)C1 (racemic) [Example 150, (RS)-4-(1H-indazol-5-ylamino)-N-(pyrimidin-5-yl)-5,6,7,8-tetrahydro[1]benzothieno[2,3-d]pyrimidine-7-carboxamide]	31.2 nM
O=C(O)C1CCc2c(sc3ncnc(Nc4cc5cn[nH]c5cc4F)c23)C1 (stereo not drawn) [Example 55, 4-[(6-Fluoro-1H-indazol-5-yl)amino]-5,6,7,8-tetrahydro[1]benzothieno[2,3-d]pyrimidine-7-carboxylic acid]	37 nM
CC(=O)N1CCN(C(=O)C2CCc3c(sc4ncnc(Nc5ccc6[nH]ncc6c5)c34)C2)CC1 (racemic) [Example 97, (RS)-1-(4-{[4-(1H-indazol-5-ylamino)-5,6,7,8-tetrahydro[1]benzothieno[2,3-d]pyrimidin-7-yl]carbonyl}piperazin-1-yl)ethanone]	20.3 nM
CCOc1cc2[nH]ncc2cc1Nc1ncnc2sc3c(c12)CCC(C(=O)N(C)CC(O)CO)C3 (racemic) [Example 257, (7RS)—N-[(2RS)-2,3-Dihydroxypropyl]-4-[(6-ethoxy-1H-indazol-5-yl)amino]-N-methyl-5,6,7,8-tetrahydro[1]benzothieno[2,3-d]pyrimidine-7-carboxamide]	0.6 nM
O=C(C1CCc2c(sc3ncnc(Nc4ccc5[nH]ncc5c4)c23)C1)N1CCS(=O)(=O)CC1 (racemic) [Example 188, (RS)-(1,1-dioxidothiomorpholin-4-yl)[4-(1H-indazol-5-ylamino)-5,6,7,8-tetrahydro[1]benzothieno[2,3-d]pyrimidin-7-yl]methanone]	22.6 nM
COCCN(CCOC)C(=O)C1CCc2c(sc3ncnc(Nc4ccc5[nH]ncc5c4)c23)C1 (racemic) [Example 107, (RS)-4-(1H-indazol-5-ylamino)-N,N-bis(2-methoxyethyl)-5,6,7,8-tetrahydro[1]benzothieno[2,3-d]pyrimidine-7-carboxamide]	8.1 nM
COc1cc2[nH]ncc2cc1Nc1ncnc2sc3c(c12)CCC(C(=O)N1[C@H](C)CC[C@H]1C)C3 (mixture of isomers) [Example 178, [(2R,5R)-2,5-Dimethylpyrrolidin-1-yl]{(7RS)-4-[(6-methoxy-1H-indazol-5-yl)amino]-5,6,7,8-tetrahydro[1]benzothieno[2,3-d]pyrimidin-7-yl}methanone]	0.2 nM
O=C(C1CCc2c(sc3ncnc(Nc4ccc5[nH]ncc5c4)c23)C1)N1CC[C@@H](O)C1 (mixture of isomers) [Example 134, (RS)-(3-hydroxypyrrolidin-1-yl)[4-(1H-indazol-5-ylamino)-5,6,7,8-tetrahydro[1]benzothieno[2,3-d]pyrimidin-7-yl]methanone]	12.7 nM
CC(C)Oc1cc2[nH]ncc2cc1Nc1ncnc2sc3c(c12)CCC(C(=O)N(C)CC1CC1)C3 (racemic) [Example 220, (RS)—N-(Cyclopropylmethyl)-N-methyl-4-{[6-(propan-2-yloxy)-1H-indazol-5-yl]amino}-5,6,7,8-tetrahydro[1]benzothieno[2,3-d]pyrimidine-7-carboxamide]	0.6 nM
CCOc1cc2[nH]ncc2cc1Nc1ncnc2sc3c(c12)CCC(C(=O)N(C)CCOC)C3 (racemic) [Example 245, (RS)-4-[(6-Ethoxy-1H-indazol-5-yl)amino]-N-(2-methoxyethyl)-N-methyl-5,6,7,8-tetrahydro[1]benzothieno[2,3-d]pyrimidine-7-carboxamide]	0.7 nM
O=C(NCCOc1ccccc1)C1CCc2c(sc3ncnc(Nc4ccc5[nH]ncc5c4)c23)C1 (stereo not drawn) [Example 31, 4-(1H-Indazol-5-ylamino)-N-(2-phenoxyethyl)-5,6,7,8-tetrahydro[1] benzothieno [2,3-d]pyrimidine-7-carboxamide]	4 nM
